Laboratory results taken from patent US20250320249A1, “PEPTIDE HAVING ACTIVITY OF IMPROVING STATE OF SKIN, AND USE THEREOF” (CAREGEN CO., LTD., priority 2021, published 2025).

How the values were obtained:
[1] = tested on: HaCaT cells; assay: Proliferation of skin cells (SRB staining, survival rate); assay type: cell-based, human; details: 50 μM or 100 μM peptide, 72 hours, serum-free DMEM, FIG. 1B
Experimental: (§1) In this example, the aim was to confirm the effect of a peptide according to an example on proliferation of skin cells, by evaluating changes in survival rate of NIH3T3 cells, which are mouse fibroblasts, or HaCaT cells, which are human keratinocytes.
(§2) Specifically, NIH3T3 cells or HaCaT cells were seeded in a 96-well plate at a density of 5×10^3 cells/well and cultured for 24 hours. The cells were then washed once with serum-free DMEM media, and the culture medium was replaced with serum-free DMEM media. Then, 50 μM or 100 μM of the peptide consisting of the amino acid sequence of SEQ ID NO: 1 was dispensed into the medium, and cultured in a CO2 incubator at 37° C. for 72 hours. The culture was then washed twice with PBS and treated with 4% paraformaldehyde (PFA) solution for 15 minutes to fix the cultured cells. The culture was then washed twice with distilled water, treated with SRB solution for 1 hour to stain the cells, washed with 1% acetic acid solution, and dried. The dried culture was then dissolved in 20 mM Tris buffer solution and the absorbance at 560 nm was measured using a microplate reader (Molecular Devices, USA). In this example, the untreated group was used as the control group, and the group to which insulin-like growth factor was added (IGF) was used as the positive control group.

[2] = tested on: NIH3T3 cells; assay: as above; assay type: cell-based, mouse; details: 50 μM or 100 μM peptide, 72 hours, serum-free DMEM, FIG. 1A
Experimental: as §1, §2

[3] = tested on: HaCaT cells; assay: Level of reactive oxygen species in ultraviolet-irradiated skin cells (DCF-DA, flow cytometry); assay type: cell-based, human; details: 15 m J/cm2 ultraviolet rays, 50 μM or 100 μM peptide, 24 hours, FIG. 7B
Experimental: (§3) In this example, the aim was to confirm the effect of the peptide according to an embodiment on the antioxidant effect of skin cells induced by ultraviolet rays, by evaluating the level of reactive oxygen species in skin cells increased by ultraviolet irradiation.
(§4) Specifically, NIH3T3 cells or HaCaT cells were seeded in a 6-well plate at a density of 5×10^5 cells/well and cultured for 24 hours. The cells were then washed once with serum-free DMEM media, the culture medium was replaced with serum-free DMEM media, and 50 μM or 100 μM of the peptide consisting of the amino acid sequence of SEQ ID NO: 1 was dispensed to the culture medium. The culture medium dispensed with the peptide was cultured in a CO2 incubator at 37° C. for 1 hour, transferred to an e-tube, mixed with 100 μl of PBS, and dispensed into a well plate. Afterwards, using a UV irradiator (VILBER LOURMAT, France), 6 J/cm2 ultraviolet rays were irradiated to NIH3T3 cells, and 15 m J/cm2 ultraviolet rays were irradiated to HaCaT cells. The PBS in the well plate was then removed, 900 μL of the culture medium in which the peptides were dispensed was added, and the plate was cultured in a CO2 incubator at 37° C. for 24 hours. […] After washing the centrifuged cells with PBS, FL1 fluorescence values were measured through flow cytometry (FACS, BD, USA). […]

[4] = tested on: NIH3T3 cells; assay: as above; assay type: cell-based, mouse; details: 6 J/cm2 ultraviolet rays, 50 μM or 100 μM peptide, 24 hours, FIG. 7A
Experimental: as §3, §4

[5] = tested on: aquaporin-3 (AQP3); assay: Expression of skin barrier factor in HaCaT cells (RT-PCR); assay type: cell-based, human; details: 50 μM or 100 μM peptide, 24 hours, FIG. 4, FIG. 5B
Experimental: (§5) In this example, the aim was to confirm the effect of the peptides according to an example on skin barrier defense, by evaluating the expression levels of sirtuin-1 (SIRT-1) or aquaporin-3 (AQP3).
(§6) Specifically, HaCaT cells were seeded in a 6-well plate at a density of 3×10^5 cells/well and cultured for 24 hours. The cells were then washed once with serum-free DMEM media, and the culture medium was replaced with serum-free DMEM media. Thereafter, 50 μM or 100 μM of the peptide consisting of the amino acid sequence of SEQ ID NO: 1 was dispensed into the medium, and cultured in a CO2 incubator at 37° C. for 24 hours. The culture was then washed twice with PBS, and RNA was isolated from the culture using easy blue (iNtRON, Korea). Using the RT kit (Enzynomics, Korea), 1 μg of the isolated RNA was reverse transcribed to synthesize the respective cDNA. Polymerase chain reaction was then performed using the cDNAs and primers sirtuin-1 and aquaporin-3. Meanwhile, the untreated group was used as the control group, and the group to which EGF was added (EGF) was used as the positive control group, the nucleotide sequences of the primers used in this example are shown in Table 3 below.

[6] = tested on: sirtuin-1 (SIRT-1); assay: as above; assay type: cell-based, human; details: 50 μM or 100 μM peptide, 24 hours, FIG. 4, FIG. 5A
Experimental: as §5, §6

[7] = tested on: elastin; assay: Expression of extracellular matrix constituent factor in NIH3T3 cells (RT-PCR); assay type: cell-based, mouse; details: 50 μM or 100 μM peptide, 24 hours, FIG. 2, FIG. 3C
Experimental: (§7) In this example, the aim was to confirm the effect of the peptide according to an example on improving endogenous skin aging, including improvement of wrinkles and enhancement of elasticity, etc., by evaluating the expression levels of collagen type 1 (Col1a1), fibronectin, or elastin, which are known components of the dermis.
(§8) Specifically, NIH3T3 cells were seeded in a 6-well plate at a density of 3×10^5 cells/well and cultured for 24 hours. The cells were then washed once with serum-free DMEM media, and the culture medium was replaced with serum-free DMEM media. Thereafter, 50 μM or 100 μM of the peptide consisting of the amino acid sequence of SEQ ID NO: 1 was dispensed into the medium, and cultured in a CO2 incubator at 37° C. for 24 hours. The culture was then washed twice with PBS, and RNA was isolated from the culture using easy blue (iNtRON, Korea). Using an RT kit (Enzynomics, Korea), 1 μg of the isolated RNA was reverse transcribed to synthesize the respective cDNA. Polymerase chain reaction (PCR) was then performed using the cDNAs and primers Col1a1, fibronectin, and elastin. Meanwhile, the untreated group was used as the control group, and the group to which TGF-β1 was added (TGF-β1) was used as the positive control group, the nucleotide sequences of the primers used in this example are shown in Table 2 below.

[8] = tested on: fibronectin; assay: as above; assay type: cell-based, mouse; details: 50 μM or 100 μM peptide, 24 hours, FIG. 2, FIG. 3B
Experimental: as §7, §8

[9] = tested on: collagen type 1 (Col1a1); assay: as above; assay type: cell-based, mouse; details: 50 μM or 100 μM peptide, 24 hours, FIG. 2, FIG. 3A
Experimental: as §7, §8

[10] = tested on: NIH3T3 cells; assay: Survival rate of skin cells after apoptosis induced by ultraviolet irradiation (SRB); assay type: cell-based, mouse; details: 6 J/cm^2 ultraviolet rays, 50 μM or 100 μM peptide, 72 hours, FIG. 6A
Experimental: (§9) In this example, the aim was to confirm the effect of the peptide according to an example on the inhibition of apoptosis or cell recovery of skin cells induced by ultraviolet rays, by evaluating the change in survival rate of skin cells whose apoptosis was induced by ultraviolet irradiation.
(§10) Specifically, NIH3T3 cells or HaCaT cells were seeded in a 96-well plate at a density of 1×10^4 cells/well and cultured for 24 hours. The cells were then washed once with serum-free DMEM media, the culture medium was replaced with serum-free DMEM media, and 50 μM or 100 μM of the peptide consisting of the amino acid sequence of SEQ ID NO: 1 was dispensed to the culture medium. The culture medium dispensed with the peptide was cultured in a CO2 incubator at 37° C. for 1 hour, transferred to an e-tube, mixed with 100 μl of PBS, and dispensed into a well plate. Afterwards, using a UV irradiator (VILBER LOURMAT, France), 6 J/cm^2 ultraviolet rays were irradiated to NIH3T3 cells, and 15 m J/cm^2 ultraviolet rays were irradiated to HaCaT cells. The PBS in the well plate was then removed, 900 μL of the culture medium in which the peptides were dispensed was added, and the plate was cultured in a CO2 incubator at 37° C. for 72 hours. […] The dried culture was then dissolved in 20 mM Tris buffer solution and the absorbance at 560 nm was measured using a microplate reader (Molecular Devices, USA). […]

[11] = tested on: HaCaT cells; assay: as above; assay type: cell-based, human; details: 15 m J/cm^2 ultraviolet rays, 50 μM or 100 μM peptide, 72 hours, FIG. 6B
Experimental: as §9, §10

DGFND (Peptide 1) [SEQ ID NO: 1]
proliferation of keratinocytes [1]: promoted | proliferation of fibroblasts [2]: promoted | level of reactive oxygen species in keratinocytes increased by ultraviolet irradiation [3]: reduced | level of reactive oxygen species in fibroblasts increased by ultraviolet irradiation [4]: reduced | expression of AQP3 [5]: increased | expression of SIRT-1 [6]: increased | expression of elastin [7]: increased | expression of fibronectin [8]: increased | expression of Col1a1 [9]: increased | cell survival rate of fibroblasts reduced by ultraviolet irradiation [10]: restored | cell survival rate of keratinocytes reduced by ultraviolet irradiation [11]: restored
